Results as given in patent US20250255981A1, “IMMUNOMODULATORY ANTIBODY-DRUG CONJUGATES” (Seagen Inc., priority 2022, published 2025).
In brackets after ≈: the same amount, converted by molar mass.

Test system: THP1-Dual™ cells (IRF-Lucia luciferase reporter)
Assay: THP1-Dual™ cell reporter assay
Format: cell-based, human
Conditions: ADC: drug linker conjugated to targeted mAb, 48 h; some values average of multiple experiments
Experimental: Potency of compounds and ADCs was evaluated using the THP1-Dual™ cells (Invivogen PN: thpd-nfis [also referred to as THP1 dual reporter cells]), which contain an IRF-Lucia luciferase reporter. Cells were cultured in RPMI-1640 (Gibco) with 10% heat-inactivated fetal bovine serum, Pen-Strep (100 U/mL-100 […], Gibco), HEPES (10 mM, Gibco)), sodium pyruvate (1 mM, Gibco), MEM non-essential amino acids (1×, Gibco), GlutaMAX (1×, Gibco), and beta-mercaptoethanol (55 μM, Gibco). Cells were plated in a 96-well flat bottom tissue culture-treated clear polystyrene plate (Corning Costar #3596) at ˜100,000 cells per well in 200 μL with the indicated concentration of the compound or ADC. The supernatant was harvested at 24 hours (compounds) or 48 hours (ADC) post plating for the reporter assay, or as indicated. To measure Lucia reporter signal, 10 µL of the supernatant was combined with 40 µL of QUANTI-Luc™ Luminescence assay reagent (Invivogen PN: rep-qlc1) in a 96-well clear flat bottom tissue culture-treated black polystyrene plate (Corning Costar #3603) and read on a Perkin Elmer Envision plate reader.

**Q.** With `CCn1nc(C)cc1C(=O)Nc1nc2cc(C(N)=O)cc(OC)c2n1C/C=C/Cn1c(NC(=O)c2cccnn2)nc2cc(C(N)=O)cc(OCCCN(C)C(=O)CCN3C(=O)C=CC3=O)c21` [compound 96] as the molecule, how does the “EC50, Lucia reporter signal” value read?
**A.** >10,000 ng/mL

**Q.** For `CCn1nc(C)cc1C(=O)Nc1nc2cc(C(N)=O)cc(OC)c2n1C/C=C/Cn1c(NC(=O)c2ccnnc2)nc2cc(C(N)=O)cc(OCCCN(C)C(=O)CCN3C(=O)C=CC3=O)c21` [compound 98], which “EC50, Lucia reporter signal” value is on record?
**A.** >10,000 ng/mL

**Q.** `CCn1nc(C)cc1C(=O)Nc1nc2cc(C(N)=O)cc(OC)c2n1C/C=C/Cn1c(NC(=O)c2ncccn2)nc2cc(C(N)=O)cc(OCCCN(C)C(=O)CCN3C(=O)C=CC3=O)c21` [compound 101] was tested. Which “EC50, Lucia reporter signal” value did it give?
**A.** >10,000 ng/mL

**Q.** With `CCn1cc(C(=O)Nc2nc3cc(C(N)=O)cc(OCCCN(C)C(=O)CCN4C(=O)C=CC4=O)c3n2C/C=C/Cn2c(NC(=O)c3cc(C)nn3CC)nc3cc(C(N)=O)cc(OC)c32)c(C)n1` [compound 102] as the molecule, how does the “EC50, Lucia reporter signal” value read?
**A.** >10,000 ng/mL

**Q.** For `CCn1cc(C)nc1C(=O)Nc1nc2cc(C(N)=O)cc(OCCCN(C)C(=O)CCN3C(=O)C=CC3=O)c2n1C/C=C/Cn1c(NC(=O)c2cc(C)nn2CC)nc2cc(C(N)=O)cc(OC)c21` [compound 103], which “EC50, Lucia reporter signal” value is on record?
**A.** >10,000 ng/mL

**Q.** How did the “EC50, Lucia reporter signal” value turn out when `CCc1cc(C(=O)Nc2nc3cc(C(N)=O)cc(OCCCN(C)C(=O)CCN4C(=O)C=CC4=O)c3n2C/C=C/Cn2c(NC(=O)c3cc(C)nn3CC)nc3cc(C(N)=O)cc(OC)c32)n(C)n1` [compound 104] was run?
**A.** >10,000 ng/mL

**Q.** Which “EC50, Lucia reporter signal” value does the source give for `CCn1nc(C)cc1C(=O)Nc1nc2cc(C(N)=O)cc(OC)c2n1C/C=C/Cn1c(NC(=O)c2cc(C)nn2C)nc2cc(C(N)=O)cc(OCCCN(C)C(=O)CCN3C(=O)C=CC3=O)c21` [compound 105] here?
**A.** 52.5 ng/mL (≈ 56.4 nM)

**Q.** With `CCc1oc(C)cc1C(=O)Nc1nc2cc(C(N)=O)cc(OCCCN(C)C(=O)CCN3C(=O)C=CC3=O)c2n1C/C=C/Cn1c(NC(=O)c2cc(C)nn2CC)nc2cc(C(N)=O)cc(OC)c21` [compound 106] as the molecule, how does the “EC50, Lucia reporter signal” value read?
**A.** >10,000 ng/mL

**Q.** `CCn1nc(C)cc1C(=O)Nc1nc2cc(C(N)=O)cc(OC)c2n1C/C=C/Cn1c(NC(=O)c2cc(C)sn2)nc2cc(C(N)=O)cc(OCCCN(C)C(=O)CCN3C(=O)C=CC3=O)c21` [compound 107] was tested. Which “EC50, Lucia reporter signal” value did it give?
**A.** >10,000 ng/mL

**Q.** `CCn1nc(C)cc1C(=O)Nc1nc2cc(C(N)=O)cc(OC)c2n1C/C=C/Cn1c(NC(=O)c2ccnn2CC)nc2cc(C(N)=O)cc(OCCCN(C)C(=O)CCN3C(=O)C=CC3=O)c21` [compound 108] was tested. Which “EC50, Lucia reporter signal” value did it give?
**A.** 63.5 ng/mL (≈ 68.2 nM)

**Q.** `CCn1nc(C)cc1C(=O)Nc1nc2cc(C(N)=O)cc(OC)c2n1C/C=C/Cn1c(NC(=O)c2cc(C(F)(F)F)nn2CC)nc2cc(C(N)=O)cc(OCCCN(C)C(=O)CCN3C(=O)C=CC3=O)c21` [compound 109] was tested. Which “EC50, Lucia reporter signal” value did it give?
**A.** >10,000 ng/mL

**Q.** How did the “EC50, Lucia reporter signal” value turn out when `CCn1nc(C)cc1C(=O)Nc1nc2cc(C(N)=O)cc(OC)c2n1C/C=C/Cn1c(NC(=O)c2c(C)cnn2C)nc2cc(C(N)=O)cc(OCCCN(C)C(=O)CCN3C(=O)C=CC3=O)c21` [compound 110] was run?
**A.** >10,000 ng/mL

**Q.** For `CCc1nc(C)sc1C(=O)Nc1nc2cc(C(N)=O)cc(OCCCN(C)C(=O)CCN3C(=O)C=CC3=O)c2n1C/C=C/Cn1c(NC(=O)c2cc(C)nn2CC)nc2cc(C(N)=O)cc(OC)c21` [compound 111], which “EC50, Lucia reporter signal” value is on record?
**A.** 13.2 ng/mL (≈ 13.7 nM)

**Q.** How did the “EC50, Lucia reporter signal” value turn out when `CCc1nc(C)oc1C(=O)Nc1nc2cc(C(N)=O)cc(OCCCN(C)C(=O)CCN3C(=O)C=CC3=O)c2n1C/C=C/Cn1c(NC(=O)c2cc(C)nn2CC)nc2cc(C(N)=O)cc(OC)c21` [compound 112] was run?
**A.** 2 ng/mL (≈ 2.11 nM)

**Q.** `CCn1nc(C)cc1C(=O)Nc1nc2cc(C(N)=O)cc(OC)c2n1C/C=C/Cn1c(NC(=O)c2cc(C)nn2CC)nc2cc(C(N)=O)cc(OCCCN(C)C(=O)[C@H](CC(C)C)NC(=O)CCN3C(=O)C=CC3=O)c21` [compound 121] was tested. Which “EC50, Lucia reporter signal” value did it give?
**A.** 3.0 ng/mL (≈ 2.84 nM)

**Q.** For `CCn1nc(C)cc1C(=O)Nc1nc2cc(C(N)=O)cc(OC)c2n1C/C=C/Cn1c(NC(=O)c2cc(C)nn2CC)nc2cc(C(N)=O)cc(OCCCN(C)C(=O)[C@H](Cc3ccccc3)NC(=O)CCN3C(=O)C=CC3=O)c21` [compound 122], which “EC50, Lucia reporter signal” value is on record?
**A.** 5.6 ng/mL (≈ 5.13 nM)

**Q.** With `CCn1nc(C)cc1C(=O)Nc1nc2cc(C(N)=O)cc(OC)c2n1C/C=C/Cn1c(NC(=O)c2cc(C)nn2CC)nc2cc(C(N)=O)cc(OCCCN(C)C(=O)[C@H](CCC(=O)OC)NC(=O)CCN3C(=O)C=CC3=O)c21` [compound 123] as the molecule, how does the “EC50, Lucia reporter signal” value read?
**A.** 1.6 ng/mL (≈ 1.47 nM)

**Q.** Which “EC50, Lucia reporter signal” value does the source give for `CCn1nc(C)cc1C(=O)Nc1nc2cc(C(N)=O)cc(OC)c2n1C/C=C/Cn1c(NC(=O)c2cc(C)nn2CC)nc2cc(C(N)=O)cc(OCCCN(C)C(=O)[C@H](Cc3ccc(OC)cc3)NC(=O)CCN3C(=O)C=CC3=O)c21` [compound 124] here?
**A.** 9.1 ng/mL (≈ 8.11 nM)

**Q.** With `CCn1nc(C)cc1C(=O)Nc1nc2cc(C(N)=O)cc(OC)c2n1C/C=C/Cn1c(NC(=O)c2cc(C)nn2CC)nc2cc(C(N)=O)cc(OCCCN(C)C(=O)[C@@H](NC(=O)CCN3C(=O)C=CC3=O)[C@@H](C)OC)c21` [compound 125] as the molecule, how does the “EC50, Lucia reporter signal” value read?
**A.** 1.4 ng/mL (≈ 1.32 nM)

**Q.** Which “EC50, Lucia reporter signal” value does the source give for `CCn1nc(C)cc1C(=O)Nc1nc2cc(C(=O)O)cc(OC)c2n1C/C=C/Cn1c(NC(=O)c2cc(C)nn2CC)nc2cc(C(N)=O)cc(OCCCN(C)C(=O)CCN3C(=O)C=CC3=O)c21` [compound 126, (E)-1-(4-(5-carbamoyl-7-(3-(3-(2,5-dioxo-2,5-dihydro-1H-pyrrol-1-yl)-N-methylpropanamido)propoxy)-2-(1-ethyl-3-methyl-1H-pyrazole-5-carboxamido)-1H-benzo[d]imidazol-1-yl)but-2-en-1-yl)-2-(1-ethyl-3-methyl-1H-pyrazole-5-carboxamido)-7-methoxy-1H-benzo[d]imidazole-5-carboxylic acid] here?
**A.** >10,000 ng/mL

**Q.** Which “EC50, Lucia reporter signal” value does the source give for `CCn1nc(C)cc1C(=O)Nc1nc2cc(S(=O)(=O)NC)ccc2n1C/C=C/Cn1c(NC(=O)c2cc(C)nn2CC)nc2cc(C(N)=O)cc(OCCCN(C)C(=O)CCN3C(=O)C=CC3=O)c21` [compound 128, (E)-7-(3-(3-(2,5-dioxo-2,5-dihydro-1H-pyrrol-1-yl)-N-methylpropanamido)propoxy)-2-(1-ethyl-3-methyl-H-pyrazole-5-carboxamido)-1-(4-(2-(1-ethyl-3-methyl-1H-pyrazole-5-carboxamido)-5-(N-methylsulfamoyl)-1H-benzo[d]imidazol-1-yl)but-2-en-1-yl)-1H-benzo[d]imidazole-5-carboxamide] here?
**A.** >10,000 ng/mL

**Q.** For `CCn1nc(C)cc1C(=O)Nc1nc2cc(C(N)=O)cc(OC)c2n1C/C=C/Cn1c(NC(=O)c2cc(C)nn2CC)nc2cc(C(N)=O)cc(OCCCN(C(=O)CCN3C(=O)C=CC3=O)C3CC3)c21` [compound 133, (E)-1-(4-(5-carbamoyl-2-(1-ethyl-3-methyl-1H-pyrazole-5-carboxamido)-7-methoxy-1H-benzo[d]imidazol-1-yl)but-2-en-1-yl)-7-(3-(N-cyclopropyl-3-(2,5-dioxo-2,5-dihydro-1H-pyrrol-1-yl)propanamido)propoxy)-2-(1-ethyl-3-methyl-1H-pyrazole-5-carboxamido)-1H-benzo[d]imidazole-5-carboxamide], which “EC50, Lucia reporter signal” value is on record?
**A.** 12.2 ng/mL (≈ 12.6 nM)

**Q.** How did the “EC50, Lucia reporter signal” value turn out when `CCn1nc(C)cc1C(=O)Nc1nc2cc(C(N)=O)cc(OC)c2n1C/C=C/Cn1c(NC(=O)c2cc(C)nn2CC)nc2cc(C(N)=O)cc(OCCC[N+](C)(C)Cc3ccc(O[C@@H]4O[C@H](C(=O)O)[C@@H](O)[C@H](O)[C@H]4O)cc3NC(=O)CCNC(=O)CCN3C(=O)C=CC3=O)c21.O=C([O-])C(F)(F)F` [compound 134] was run?
**A.** 10.3 ng/mL

**Q.** With `CCn1nc(C)cc1C(=O)Nc1nc2cc(S(N)(=O)=O)ccc2n1C/C=C/Cn1c(NC(=O)c2cc(C)nn2CC)nc2cc(C(N)=O)cc(OCCCOC3CN(C(=O)CCN4C(=O)C=CC4=O)C3)c21` [compound 146, (E)-7-(3-((1-(3-(2,5-dioxo-2,5-dihydro-1H-pyrrol-1-yl)propanoyl)azetidin-3-yl)oxy)propoxy)-2-(1-ethyl-3-methyl-1H-pyrazole-5-carboxamido)-1-(4-(2-(1-ethyl-3-methyl-1H-pyrazole-5-carboxamido)-5-sulfamoyl-1H-benzo[d]imidazol-1-yl)but-2-en-1-yl)-1H-benzo[d]imidazole-5-carboxamide] as the molecule, how does the “EC50, Lucia reporter signal” value read?
**A.** >10,000 ng/mL

**Q.** With `CCn1nc(C)cc1C(=O)Nc1nc2cc(S(N)(=O)=O)ccc2n1C/C=C/Cn1c(NC(=O)c2cc(C)nn2C)nc2cc(C(N)=O)cc(OCCCOC3CN(C(=O)CCN4C(=O)C=CC4=O)C3)c21` [compound 147, (E)-2-(1,3-dimethyl-1H-pyrazole-5-carboxamido)-7-(3-((1-(3-(2,5-dioxo-2,5-dihydro-1H-pyrrol-1-yl)propanoyl)azetidin-3-yl)oxy)propoxy)-1-(4-(2-(1-ethyl-3-methyl-1H-pyrazole-5-carboxamido)-5-sulfamoyl-1H-benzo[d]imidazol-1-yl)but-2-en-1-yl)-1H-benzo[d]imidazole-5-carboxamide] as the molecule, how does the “EC50, Lucia reporter signal” value read?
**A.** >10,000 ng/mL

**Q.** How did the “EC50, Lucia reporter signal” value turn out when `CCn1nc(C)cc1C(=O)Nc1nc2cc(S(N)(=O)=O)ccc2n1C/C=C/Cn1c(NC(=O)c2cc(C)nn2C)nc2cc(C(N)=O)cc(OCCCN(C)C(=O)CCN3C(=O)C=CC3=O)c21` [compound 148, (E)-2-(1,3-dimethyl-1H-pyrazole-5-carboxamido)-7-(3-(3-(2,5-dioxo-2,5-dihydro-1H-pyrrol-1-yl)-N-methylpropanamido)propoxy)-1-(4-(2-(1-ethyl-3-methyl-1H-pyrazole-5-carboxamido)-5-sulfamoyl-1H-benzo[d]imidazol-1-yl)but-2-en-1-yl)-1H-benzo[d]imidazole-5-carboxamide] was run?
**A.** >10,000 ng/mL
